Results published in patent US20250144067A1, “PERSONALIZED STARVATION THERAPY FOR CANCER” (Faeth Therapeutics, Inc., priority 2021, published 2025).
Counter-ions that a name gives are not always drawn. Like-named read-outs stand apart in the source and are kept apart here.

Assays:
[1] = system: NCI-H292 lung cancer cells; assay: FDA drug screening, complete media vs cholesterol-free media without statin (TABLE 1); assay type: cell-based, human
[2] = system: NCI-H292 lung cancer cells; assay: FDA drug screening, complete media vs cholesterol-free media with simvastatin (TABLE 2); assay type: cell-based, human
[3] = NCI-H292 cells, FDA drug library screen, cholesterol-free media without statin
[4] = NCI-H292 cells, FDA drug library screen, complete media
[5] = NCI-H292 cells, FDA drug library screen, cholesterol-free media with simvastatin 0.04 μM
[6] = NCI-H292 cells, cholesterol-free media without statin, FDA drug library screen
[7] = NCI-H292 cells, complete media, FDA drug library screen
[8] = complete vs cholesterol-free media, >0 enhanced anti-cancer activity, about 0 neutral, <0 antagonist
[9] = NCI-H292 cells, FDA library drug in cholesterol-free media with simvastatin 0.04 μM
[10] = complete media vs cholesterol-free media + simvastatin (0.04 μM), >0 enhanced anti-cancer activity, about 0 neutral, <0 antagonist
[11] = Complete minus Cholesterol-free, >0 enhanced anti-cancer activity, about 0 neutral, <0 antagonist
[12] = NCI-H292 cells, cholesterol-free media without statin
[13] = NCI-H292 cells, cholesterol-free media with simvastatin 0.04 μM, cell growth value in FDA drug screen
[14] = NCI-H292 cells, complete media, cell growth value in FDA drug screen
[15] = complete media minus cholesterol-free media + simvastatin, >0 enhanced anti-cancer activity, about 0 neutral, <0 antagonist
[16] = Complete minus Cholesterol-free, greater than 0 enhanced anti-cancer activity, about 0 neutral, below 0 antagonists
[17] = NCI-H292 cells in cholesterol-free media without statin
[18] = NCI-H292 cells in complete media
[19] = complete vs cholesterol-free media, greater than 0 enhanced anti-cancer activity, about 0 neutral, below 0 antagonists
[20] = NCI-H292 cells, drug in cholesterol-free media with simvastatin 0.04 μM
[21] = NCI-H292 cells, drug in complete media
[22] = NCI-H292 cells, FDA library drug in complete media
[23] = NCI-H292 cells, cholesterol-free media with simvastatin 0.04 μM, FDA drug library screen (TABLE 2)
[24] = NCI-H292 cells, complete media, FDA drug library screen (TABLE 2)
[25] = complete media minus cholesterol-free media + simvastatin (0.04 μM), >0 enhanced anti-cancer activity, about 0 neutral, <0 antagonist
[26] = Complete minus Cholesterol-free, greater than 0 enhanced anti-cancer activity, about 0 neutral, below 0 antagonist

CC1(C)CCC[C@](C)([C@H]2CC[C@]3(C)[C@@H]2[C@H](O)C[C@@H]2[C@@]4(C)CC[C@H](O)C(C)(C)[C@@H]4[C@@H](O)C[C@]23C)O1 [Panaxatriol]
Difference ([1]; Complete minus Cholesterol-free, […]): −0.09 | Cholesterol-free [1, 3]: 1.136 | Complete [1, 4]: 1.044 | Cholesterol-free media + simvastatin (0.04 μM) [2, 5]: 1.085 | Complete Media [2, 4]: 0.956 | Difference ([2]; complete media vs cholesterol-free media + simvastatin (0.04 μM), […]): −0.13

NC(=O)N/N=C/c1ccc([N+](=O)[O-])o1 [Nitrofurazone]
Cholesterol-free [1, 6]: 1.281 | Complete [1, 7]: 1.416 | Difference [1, 8]: 0.13 | Cholesterol-free media + simvastatin (0.04 μM) [2, 9]: 1.854 | Difference [2, 10]: −0.70

COC(=O)[C@H]1[C@H]2C[C@@H]3c4[nH]c5cc(OC)ccc5c4CCN3C[C@H]2C[C@@H](OC(=O)c2cc(OC)c(OC)c(OC)c2)[C@@H]1OC [Reserpine]
Difference [1, 11]: −0.28 | Cholesterol-free [1, 12]: 1.042 | Complete ([1]; NCI-H292 cells, complete media): 0.7591 | Cholesterol-free media + simvastatin (0.04 μM) [2, 13]: 0.8906 | Complete Media [2, 14]: 0.9102 | Difference [2, 15]: 0.02

CC(=O)[C@H]1CC[C@H]2[C@@H]3C=CC4=CC(=O)CC[C@@]4(C)[C@@H]3CC[C@]12C [Dydrogesterone]
Difference [1, 16]: −0.68 | Cholesterol-free [1, 17]: 1.745 | Complete [1, 18]: 1.064 | Cholesterol-free media + simvastatin (0.04 μM) [2, 13]: 1.183 | Complete Media [2, 14]: 1.295 | Difference [2, 15]: 0.11

Nc1nc2ncc(CNc3ccc(C(=O)N[C@@H](CCC(=O)O)C(=O)O)cc3)nc2c(=O)[nH]1 [Folic acid]
Cholesterol-free [1, 12]: 1.731 | Complete ([1]; NCI-H292 cells, complete media): 1.312 | Difference [1, 19]: −0.42 | Cholesterol-free media + simvastatin (0.04 μM) [2, 20]: 1.118 | Complete Media [2, 21]: 0.9443 | Difference [2, 10]: −0.17

Cc1ccc(C)c(OCCCC(C)(C)C(=O)O)c1 [Gemfibrozil]
Cholesterol-free [1, 12]: 1.369 | Complete ([1]; NCI-H292 cells, complete media): 0.9198 | Difference [1, 19]: −0.45 | Cholesterol-free media + simvastatin (0.04 μM) [2, 5]: 1.808 | Complete Media [2, 4]: 1.701 | Difference [2, 10]: −0.11

Nc1ncnc2[nH]cnc12 [Adenine]
Difference [1, 16]: −0.97 | Cholesterol-free [1, 17]: 1.858 | Complete [1, 18]: 0.8914 | Cholesterol-free media + simvastatin (0.04 μM) [2, 5]: 1.106 | Complete Media [2, 4]: 1.256 | Difference [2, 15]: 0.15

COc1cc2c(Nc3ccc(Br)cc3F)ncnc2cc1OCC1CCN(C)CC1 [Vandetanib]
Cholesterol-free [1, 6]: 0.1902 | Complete [1, 7]: 0.3633 | Difference [1, 8]: 0.17 | Cholesterol-free media + simvastatin (0.04 μM) [2, 5]: 0.4174 | Complete Media [2, 4]: 0.7391 | Difference [2, 15]: 0.32

COc1ccc2cccc(CCNC(C)=O)c2c1 [Agomelatine]
Cholesterol-free [1, 6]: 0.6611 | Complete [1, 7]: 0.8138 | Difference [1, 8]: 0.15 | Cholesterol-free media + simvastatin (0.04 μM) [2, 9]: 1.184 | Complete Media [2, 22]: 0.8914 | Difference [2, 10]: −0.29

Carbetapentane (citrate)
Difference [1, 11]: −0.21 | Cholesterol-free [1, 12]: 1.181 | Complete ([1]; NCI-H292 cells, complete media): 0.9736 | Cholesterol-free media + simvastatin (0.04 μM) [2, 5]: 0.8092 | Complete Media [2, 4]: 1.195 | Difference [2, 15]: 0.39

CC(C)Cn1cnc2c(N)nc3ccccc3c21 [Imiquimod (hydrochloride)]
Cholesterol-free [1]: 0.8815 | Complete [1]: 1.16 | Difference [1]: 0.28 | Cholesterol-free media + simvastatin (0.04 μM) [2]: 1.323 | Complete Media [2]: 1.16 | Difference [2]: −0.16

Cc1nc2n(c(=O)c1CCN1CCC(c3noc4cc(F)ccc34)CC1)CCCC2 [Risperidone]
Cholesterol-free [1]: 1.099 | Complete [1]: 0.9616 | Difference [1]: −0.14 | Cholesterol-free media + simvastatin (0.04 μM) [2]: 0.9957 | Difference [2]: 0.16

CN1[C@@H]2CC[C@H]1C[C@@H](OC(=O)C(CO)c1ccccc1)C2 (stereo partly shown) [Atropine]
Cholesterol-free [1]: 1.317 | Complete [1]: 0.8977 | Difference [1]: −0.42 | Cholesterol-free media + simvastatin (0.04 μM) [2]: 1.317 | Difference [2]: −0.28

O=c1n(CCCN2CCN(c3cccc(Cl)c3)CC2)nc2ccccn12 [Trazodone (hydrochloride)]
Cholesterol-free [1, 12]: 1.4 | Complete ([1]; NCI-H292 cells, complete media): 1.032 | Difference [1, 19]: −0.37 | Cholesterol-free media + simvastatin (0.04 μM) [2, 5]: 0.8105 | Complete Media [2, 4]: 1.053 | Difference [2, 15]: 0.24

Abemaciclib (methanesulfonate)
Difference [1, 11]: −0.03 | Cholesterol-free [1, 6]: 0.6853 | Complete [1, 7]: 0.6534 | Cholesterol-free media + simvastatin (0.04 μM) [2, 9]: 0.9262 | Complete Media [2, 22]: 0.6131 | Difference [2, 10]: −0.31

CC[C@H]1OC(=O)[C@H](C)[C@@H](O[C@H]2C[C@@](C)(OC)[C@@H](O)[C@H](C)O2)[C@H](C)[C@@H](O[C@@H]2O[C@H](C)C[C@H](N(C)C)[C@H]2O)[C@](C)(OC)C[C@@H](C)C(=O)[C@H](C)[C@@H](O)[C@]1(C)O [Clarithromycin]
Difference [1, 16]: −0.74 | Cholesterol-free [1, 17]: 1.607 | Complete [1, 18]: 0.8616 | Cholesterol-free media + simvastatin (0.04 μM) [2, 5]: 1.214 | Complete Media [2, 4]: 1.064 | Difference [2, 10]: −0.15

Nc1nc2nc[nH]c2c(=S)[nH]1 [6-Thioguanine]
Cholesterol-free [1, 12]: 0.7053 | Complete ([1]; NCI-H292 cells, complete media): 0.3153 | Difference [1, 19]: −0.39 | Cholesterol-free media + simvastatin (0.04 μM) [2, 23]: 0.7013 | Complete Media [2, 24]: 0.7052 | Difference [2, 25]: 0.00

CN1C(CCl)Nc2cc(Cl)c(S(N)(=O)=O)cc2S1(=O)=O (stereo not shown) [Methyclothiazide]
Difference [1, 11]: −0.24 | Cholesterol-free [1, 12]: 1.096 | Complete ([1]; NCI-H292 cells, complete media): 0.856 | Cholesterol-free media + simvastatin (0.04 μM) [2, 23]: 1.147 | Complete Media [2, 24]: 1.081 | Difference [2, 25]: −0.07

Nc1ccncc1N [Amifampridine]
Cholesterol-free [1, 12]: 1.476 | Complete ([1]; NCI-H292 cells, complete media): 1.141 | Difference [1, 19]: −0.33 | Cholesterol-free media + simvastatin (0.04 μM) [2, 20]: 1.299 | Complete Media [2, 21]: 1.071 | Difference [2, 10]: −0.23

CC(C)(C)CC(=O)OCC(=O)[C@@]12OC(C)(C)O[C@@H]1C[C@H]1[C@@H]3CCC4=CC(=O)C=C[C@]4(C)[C@@]3(F)[C@@H](O)C[C@@]12C [Triamcinolone hexacetonide]
Difference [1, 11]: −0.20 | Cholesterol-free [1, 12]: 0.7329 | Complete ([1]; NCI-H292 cells, complete media): 0.5285 | Cholesterol-free media + simvastatin (0.04 μM) [2, 9]: 1.053 | Complete Media [2, 22]: 0.6525 | Difference [2, 10]: −0.40

CCC(=O)O[C@@H]1CC(=O)O[C@H](C)C/C=C/C=C/[C@H](O)[C@H](C)C[C@H](CC=O)[C@H](O[C@@H]2O[C@H](C)[C@@H](O[C@H]3C[C@@](C)(O)[C@@H](OC(=O)CC)[C@H](C)O3)[C@H](N(C)C)[C@H]2O)[C@H]1OC [Midecamycin]
Cholesterol-free [1, 6]: 1.021 | Complete [1, 7]: 1.536 | Difference [1, 8]: 0.52 | Cholesterol-free media + simvastatin (0.04 μM) [2, 9]: 1.255 | Complete Media [2, 22]: 0.9149 | Difference [2, 10]: −0.34

CCN(c1cc(-c2ccc(CN3CCOCC3)cc2)cc(C(=O)NCc2c(C)cc(C)[nH]c2=O)c1C)C1CCOCC1 [Tazemetostat]
Difference [1, 16]: −0.49 | Cholesterol-free [1, 17]: 1.722 | Complete [1, 18]: 1.228 | Cholesterol-free media + simvastatin (0.04 μM) [2, 5]: 0.9335 | Complete Media [2, 4]: 1.59 | Difference [2, 15]: 0.66

CCC(=O)NS(=O)(=O)c1ccc(-c2c(-c3ccccc3)noc2C)cc1 [Parecoxib (Sodium)]
Difference [1, 26]: −0.08 | Cholesterol-free [1, 3]: 0.9327 | Complete [1, 4]: 0.8551 | Cholesterol-free media + simvastatin (0.04 μM) [2, 5]: 2.419 | Difference [2, 25]: −1.17

CC1(C)O[C@@H]2[C@@H](CO[C@@]3(COS(N)(=O)=O)OC(C)(C)O[C@@H]23)O1 [Topiramate]
Cholesterol-free [1, 12]: 1.406 | Complete ([1]; NCI-H292 cells, complete media): 0.9724 | Difference [1, 19]: −0.43 | Cholesterol-free media + simvastatin (0.04 μM) [2, 13]: 1.666 | Complete Media [2, 14]: 1.706 | Difference [2, 15]: 0.04

CCN(CC)C(=O)C1(c2ccccc2)CC1CN (stereo not shown) [Milnacipran (hydrochloride)]
Cholesterol-free [1, 12]: 1.545 | Complete ([1]; NCI-H292 cells, complete media): 1.09 | Difference ([1]; complete vs cholesterol-free media, […]): −0.45 | Cholesterol-free media + simvastatin (0.04 μM) [2, 23]: 1.626 | Complete Media [2, 24]: 1.564 | Difference ([2]; complete media minus cholesterol-free media + simvastatin (0.04 μM), […]): −0.06

CCn1cc(C(=O)O)c(=O)c2cnc(N3CCNCC3)nc21 [Pipemidic acid]
Cholesterol-free [1, 12]: 1.181 | Complete ([1]; NCI-H292 cells, complete media): 0.8267 | Difference [1, 19]: −0.35 | Cholesterol-free media + simvastatin (0.04 μM) [2, 23]: 1.008 | Complete Media [2, 24]: 0.9896 | Difference [2, 25]: −0.02

C[C@H]1O[C@H](O[C@H]2[C@H](O)[C@@H](O)[C@@H](O[C@H]3[C@H](O)[C@@H](O)C(O)O[C@@H]3CO)O[C@@H]2CO)[C@H](O)[C@@H](O)[C@@H]1N[C@H]1C=C(CO)[C@@H](O)[C@H](O)[C@H]1O (stereo partly shown) [Acarbose]
Difference [1, 26]: −0.13 | Cholesterol-free [1, 3]: 1.056 | Complete [1, 4]: 0.9216 | Cholesterol-free media + simvastatin (0.04 μM) [2, 5]: 0.841 | Difference [2, 15]: 0.31
